Publication PMC6317804, “The integration of pharmacophore-based 3D QSAR modeling and virtual screening in safety profiling: A case study to identify antagonistic activities against adenosine receptor, A2A, using 1,897 known drugs” (PLoS ONE, 2019)
Where “and” joins values, the source holds several entries; their conditions need not be identical. Identical values can stand only once.

Columns and labels:
[1] = target: T1, adenosine receptor 2A (A2A) (Homo sapiens, UniProt P29274); assay: Functional antagonist assay monitoring cAMP (CEREP); format: cell-based;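 for IC50, cAMP, M: eight-point concentration-response from 0 to 10 µM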
T1 construct: CEREP (Poitiers, France), paid service
T1 sequence (P29274 whole entry): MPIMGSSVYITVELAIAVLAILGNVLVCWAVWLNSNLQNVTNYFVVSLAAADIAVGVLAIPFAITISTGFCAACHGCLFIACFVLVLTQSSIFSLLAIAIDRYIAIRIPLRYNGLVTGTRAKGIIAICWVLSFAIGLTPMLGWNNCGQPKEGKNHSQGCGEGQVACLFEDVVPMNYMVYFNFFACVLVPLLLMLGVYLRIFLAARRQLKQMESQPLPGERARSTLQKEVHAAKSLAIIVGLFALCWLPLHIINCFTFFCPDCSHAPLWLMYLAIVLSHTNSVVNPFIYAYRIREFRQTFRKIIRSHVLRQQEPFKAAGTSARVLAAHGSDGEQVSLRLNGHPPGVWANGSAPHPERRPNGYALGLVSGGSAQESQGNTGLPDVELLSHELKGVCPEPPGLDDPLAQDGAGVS
Description: (§1) Competition binding assay using radioactive ligands and functional assay monitoring cAMP were carried out as a paid service provided by CEREP (Poitiers, France). The functional assays monitoring Ca^2+ flux were carried out as a paid service provided by DiscoveRx (Carlsbad, CA).

[2] = target: T1, adenosine receptor 2A (A2A); assay: Functional assay monitoring Ca2+ flux (DiscoveRx); format: cell-based; parameters: inhibition: dose or concentration left out as unconfirmed; details: for inhibition: read-out: IC50, Ca2+, M; for inhibition at up to 10 µM: read-out: IC50, Ca2+
Description: as §1

[3] = target: T1, adenosine receptor 2A (A2A); assay: Competition binding assay using radioactive ligands (CEREP); parameters: inhibition: dose or concentration left out as unconfirmed; details: for inhibition at 10 µM: fixed compound concentration of 10 μM;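 for all read-outs here: compounds screened at a single fixed 10 µM concentration for displacement of a radioligand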
Description: as §1

A2A = details: cited from earlier work
[4] = concentration-response up to 10 μM, read-out: IC50, cAMP
[5] = concentration-response up to 10 μM

## CC1=C(C(=O)O)N2C(=O)[C@@H](NC(=O)[C@H](N)c3ccccc3)[C@H]2SC1 [Cephalexin]
[1]; [4]
  inhibition at up to 10 µM: < 50%
[2]
  inhibition: < 50%
[3]
  inhibition at 10 µM: < 50%

## C#C[C@]1(O)CC[C@H]2[C@@H]3CCC4=CCCC[C@@H]4[C@H]3C(=C)C[C@@]21CC [Desogestrel]
[1]; [4]
  inhibition at up to 10 µM: < 50%
[2]
  inhibition: < 50%
[3]
  inhibition at 10 µM: < 50%

## COc1ccc([C@@H]2Sc3ccccc3N(CCN(C)C)C(=O)[C@@H]2OC(C)=O)cc1 [Diltiazem]
[1]; [4]
  inhibition at up to 10 µM: < 50%
[2]
  inhibition: < 50%
[3]
  inhibition at 10 µM: < 50%

## COc1cccc2c1C(=O)c1c(O)c3c(c(O)c1C2=O)C[C@@](O)(C(=O)CO)C[C@@H]3O[C@H]1C[C@H](N)[C@H](O)[C@H](C)O1 [Doxorubicin]
[1]; [4]
  inhibition at up to 10 µM: < 50%
[2]; [5]
  IC50: 2.5 µM
[3]
  inhibition at 10 µM: < 50%

## C[C@@H](O)[C@H]1C(=O)N2C(C(=O)O)=C(S[C@@H]3CN[C@H](C(=O)Nc4cccc(C(=O)O)c4)C3)[C@H](C)[C@H]12 [Ertapenem]
[1]; [4]
  inhibition at up to 10 µM: < 50%
[2]
  inhibition: < 50%
[3]
  inhibition at 10 µM: < 50%

## Cc1cc(C#N)cc(C)c1Oc1nc(Nc2ccc(C#N)cc2)nc(N)c1Br [Etravirine]
[1]; [4]
  inhibition at up to 10 µM: < 50%
[2]; [5]
  inhibition at up to 10 µM: < 50%
[3]
  inhibition at 10 µM: < 50%

## O=C(/C=C/c1c(-c2ccccc2)nn2ccccc12)N1CCCC[C@@H]1CCO [FK453]
A2A
  IC50: 1.58 µM

## NC(N)=Nc1nc(CSCCC(N)=NS(N)(=O)=O)cs1 [Famotidine]
[1]; [4]
  inhibition: < 50%
[2]
  inhibition: < 50%
[3]
  inhibition at 10 µM: < 50%

## NC(=O)OCC(COC(N)=O)c1ccccc1 [Felbamate]
[1]; [4]
  inhibition at up to 10 µM: < 50%
[2]
  inhibition: < 50%
[3]
  inhibition at 10 µM: < 50%

## Cc1onc(-c2c(F)cccc2Cl)c1C(=O)N[C@@H]1C(=O)N2[C@@H]1SC(C)(C)[C@@H]2C(=O)O [Flucloxacillin]
[1]; [4]
  inhibition at up to 10 µM: < 50%
[2]
  inhibition: < 50%
[3]
  inhibition at 10 µM: < 50%

## NCC1(CC(=O)O)CCCCC1 [Gabapentin]
[1]; read-out: IC50, cAMP, M
  inhibition: < 50%
[2]
  inhibition: < 50%
[3]; read-out: %inhibition, binding
  inhibition: < 50%

## CCC1=C(C)CN(C(=O)NCCc2ccc(S(=O)(=O)NC(=O)N[C@H]3CC[C@H](C)CC3)cc2)C1=O [Glimepiride]
[1]; [4]
  inhibition at up to 10 µM: < 50%
[2]; [5]
  inhibition at up to 10 µM: < 50%
[3]
  inhibition at 10 µM: < 50%

## COc1ccc2c(c1)C(=O)N(CCc1ccc(S(=O)(=O)NC(=O)NC3CCCCC3)cc1)C(=O)C2(C)C [Gliquidone]
[1]; [4]
  inhibition at up to 10 µM: < 50%
[2]
  inhibition: < 50%
[3]
  inhibition at 10 µM: < 50%

## CC(C)[N+]1(C)[C@@H]2CC[C@H]1C[C@@H](OC(=O)C(CO)c1ccccc1)C2 (some centres unmarked) [Ipratropium bromide]
[1]; [5]
  IC50, cAMP, M: N.E. (N.E., no effects. Results showing an inhibition or stimulation lower than 50% are considered to represent insignificant effects of the test compounds.)
[2]; [5]
  IC50, Ca2+, M: N.E. (N.E., no effects. Results showing an inhibition or stimulation lower than 50% are considered to represent insignificant effects of the test compounds.)
[3]
  inhibition at 10 µM: < 50%

## COC(=O)C1=C(C)NC(C)=C(C(=O)OC(C)C)C1c1cccc2nonc12 (centres unmarked) [Isradipine]
[1]; [4]
  inhibition at up to 10 µM: < 50%
[2]
  inhibition: < 50%
[3]
  inhibition at 10 µM: < 50%

## c1ccc(-c2cc(-c3ccccc3)c3nc(C4CCCCC4)[nH]c3n2)cc1 [LUF5981]
A2A
  IC50: 0.2 µM

## Nc1nnc(-c2cccc(Cl)c2Cl)c(N)n1 [Lamotrigine]
[1]; [4]
  inhibition at up to 10 µM: < 50%
[2]
  inhibition: < 50%
[3]
  inhibition at 10 µM: < 50%

## CCOC(=O)C1=C(C)NC(c2ccccc2)=C(C(=O)OCc2ccccc2)C1C#Cc1ccccc1 (centres unmarked) [MRS1191]
A2A
  IC50: ~10 µM and 10 µM

## Nc1ccc(O)c(C(=O)O)c1 [Mesalazine]
[1]; [4]
  inhibition at up to 10 µM: < 50%
[2]; [5]
  inhibition at up to 10 µM: < 50%
[3]
  inhibition at 10 µM: < 50%

## COCCc1ccc(OCC(O)CNC(C)C)cc1 (centres unmarked) [Metoprolol]
[1]; [4]
  inhibition at up to 10 µM: < 50%
[2]
  inhibition: < 50%
[3]
  inhibition at 10 µM: < 50%

## COc1ccc(OC)c(C(O)CNC(=O)CN)c1 (centres unmarked) [Midodrine]
[1]; [4]
  inhibition at up to 10 µM: < 50%
[2]
  inhibition: < 50%
[3]
  inhibition at 10 µM: < 50%

## Cc1[nH]c(=O)c(C#N)cc1-c1ccncc1 [Milrinone]
[1]; [4]
  inhibition at up to 10 µM: < 50%
[2]
  inhibition: < 50%
[3]
  inhibition at 10 µM: < 50%

## OC(CNCC(O)C1CCc2cc(F)ccc2O1)C1CCc2cc(F)ccc2O1 (centres unmarked) [Nebivolol]
[1]; [4]
  inhibition at up to 10 µM: < 50%
[2]
  inhibition: < 50%
[3]
  inhibition at 10 µM: < 50%

## Cc1c(O)cccc1C(=O)N[C@@H](CSc1ccccc1)[C@H](O)CN1C[C@H]2CCCC[C@H]2C[C@H]1C(=O)NC(C)(C)C [Nelfinavir]
[1]; [4]
  inhibition at up to 10 µM: < 50%
[2]; [5]
  inhibition at up to 10 µM: < 50%
[3]
  inhibition at 10 µM: < 50%

## O=C1CCCC(=O)C1C(=O)c1ccc(C(F)(F)F)cc1[N+](=O)[O-] [Nitisinone]
[1]; [4]
  inhibition at up to 10 µM: < 50%
[2]; [5]
  inhibition at up to 10 µM: < 50%
[3]
  inhibition at 10 µM: < 50%

## NC[C@H](O)c1ccc(O)c(O)c1 [Norepinephrine]
[1]; [4]
  inhibition at up to 10 µM: < 50%
[2]
  inhibition: < 50%
[3]
  inhibition at 10 µM: < 50%

## CC(=O)CCCCn1c(=O)c2c(ncn2C)n(C)c1=O [Pentoxifylline]
[1]; [4]
  inhibition at up to 10 µM: < 50%
[2]
  inhibition: < 50%
[3]
  inhibition at 10 µM: < 50%
A2A
  IC50: ~10 µM

## CN(C)CCC(c1ccccc1)c1ccccn1 (centres unmarked) [Pheniramine]
[1]; [4]
  inhibition at up to 10 µM: < 50%
[2]; [5]
  inhibition at up to 10 µM: < 50%
[3]
  inhibition at 10 µM: < 50%

## Cc1ccc2c(c1)c1c3n2CCNC3CCC1 (centres unmarked) [Pirlindole]
[1]; [4]
  inhibition at up to 10 µM: < 50%
[2]; [5]
  inhibition at up to 10 µM: < 50%
[3]
  inhibition at 10 µM: < 50%

## O=C(Nc1cccc2c(=O)cc(-c3nnn[nH]3)oc12)c1ccc(OCCCCc2ccccc2)cc1 [Pranlukast]
[1]; [4]
  inhibition at up to 10 µM: < 50%
[2]; [5]
  IC50: 0.83 µM
[3]
  inhibition at 10 µM: < 50%

## CCCNCC(O)COc1ccccc1C(=O)CCc1ccccc1 (centres unmarked) [Propafenone]
[1]; [4]
  inhibition at up to 10 µM: < 50%
[2]
  inhibition: < 50%
[3]
  inhibition at 10 µM: < 50%

## Cc1ncc(CO)c(C=O)c1O [Pyridoxal]
[1]; [4]
  inhibition at up to 10 µM: < 50%
[2]
  inhibition: < 50%
[3]
  inhibition at 10 µM: < 50%

## NC(=O)c1ncn([C@@H]2O[C@H](CO)[C@@H](O)[C@H]2O)n1 [Ribavirin]
[1]; [4]
  inhibition at up to 10 µM: < 50%
[2]
  inhibition: < 50%
[3]
  inhibition at 10 µM: < 50%

## CN(CCOc1ccc(CC2SC(=O)NC2=O)cc1)c1ccccn1 (centres unmarked) [Rosiglitazone]
[1]; [4]
  inhibition at up to 10 µM: < 50%
[2]
  inhibition: < 50%
[3]
  inhibition at 10 µM: < 50%

## C[S+](CC[C@H](N)C(=O)[O-])C[C@H]1O[C@@H](n2cnc3c(N)ncnc32)[C@H](O)[C@@H]1O (some centres unmarked) [S-Adenosyl-methionine]
[1]; [4]
  inhibition at up to 10 µM: < 50%
[2]; [5]
  inhibition at up to 10 µM: < 50%
[3]
  inhibition at 10 µM: 74%

## O=C(Oc1ccccc1C(=O)O)c1ccccc1O [Salsalate]
[1]; [4]
  inhibition at up to 10 µM: < 50%
[2]
  inhibition: < 50%
[3]
  inhibition at 10 µM: < 50%

## CC(C)OC(=O)[C@H](C)N[P@](=O)(OC[C@H]1O[C@@H](n2ccc(=O)[nH]c2=O)[C@](C)(F)[C@@H]1O)Oc1ccccc1 [Sofosbuvir]
[1]; read-out: IC50, cAMP, M
  inhibition: < 50%
[2]
  inhibition: < 50%
[3]
  inhibition at 10 µM: < 50%

## CCN1CCCC1CNC(=O)c1cc(S(N)(=O)=O)ccc1OC (centres unmarked) [Sulpiride]
[1]; [4]
  inhibition at up to 10 µM: < 50%
[2]
  inhibition: < 50%
[3]
  inhibition at 10 µM: < 50%

## CCCSc1nc(N[C@@H]2C[C@H]2c2ccc(F)c(F)c2)c2nnn([C@@H]3C[C@H](OCCO)[C@@H](O)[C@H]3O)c2n1 [Ticagrelor]
[1]; [4]
  inhibition at up to 10 µM: < 50%
[2]; [5]
  inhibition at up to 10 µM: < 50%
[3]
  inhibition at 10 µM: < 50%

## Nc1nc(N)c2nc(-c3ccccc3)c(N)nc2n1 [Triamterene]
[1]; [4]
  inhibition at up to 10 µM: < 50%
[2]
  inhibition: < 50%
[3]
  inhibition at 10 µM: < 50%

## CC(C)[C@H](N)C(=O)OCCOCn1cnc2c(=O)[nH]c(N)nc21 [Valaciclovir]
[1]; [4]
  inhibition at up to 10 µM: < 50%
[2]
  inhibition: < 50%
[3]
  inhibition at 10 µM: < 50%

## CC(C)[C@H](N)C(=O)OCC(CO)OCn1cnc2c(=O)nc(N)[nH]c21 (some centres unmarked) [Valganciclovir]
[1]; [4]
  inhibition at up to 10 µM: < 50%
[2]
  inhibition: < 50%
[3]
  inhibition at 10 µM: < 50%

## Cn1c(=O)c2c(ncn2CC(O)CO)n(C)c1=O (centres unmarked) [dyphylline]
A2A
  IC50: ~10 µM
